{"source": "ChEMBL document CHEMBL1130700", "about": "“Antiinflammatory 4,5-diarylimidazoles as selective cyclooxygenase inhibitors” (1998)", "type_in_all_cases": "functional", "key": {"[1]": {"tested_on": "Mus musculus", "assay": "In vivo inhibitory activity by mouse air-pouch assay at dose 2 MPK was determined."}, "[2]": {"organism": "Rattus norvegicus", "assay": "Effective dose was evaluated by rat adjuvant arthritis model."}, "[3]": {"organism": "Mus musculus", "assay": "Effective dose was evaluated by mouse air-pouch assay."}, "[4]": {"tested_on": "Mus musculus", "assay": "In vivo inhibitory activity by mouse air-pouch assay at dose 2 mg/Kg was determined."}}, "data": [{"smiles": "CS(=O)(=O)c1ccc(-c2[nH]c(C(F)(F)F)nc2-c2cccs2)cc1", "values": [{"measurement": "inhibition in vivo at 2 mg/kg", "setting": "[1]", "value": 79, "unit": "%"}]}, {"smiles": "CS(=O)(=O)c1ccc(-c2[nH]c(C(F)(F)F)nc2-c2ccccc2)cc1", "values": [{"measurement": "ED50", "setting": "[2]", "value": 0.16, "unit": "mg/kg"}, {"measurement": "ED50", "setting": "[3]", "value": 0.38, "unit": "mg/kg"}, {"measurement": "inhibition in vivo at 2 mg/kg", "setting": "[4]", "value": 95, "unit": "%"}]}, {"smiles": "Cc1ccc(-c2cc(C(F)(F)F)nn2-c2ccc(S(N)(=O)=O)cc2)cc1", "note": "[CELECOXIB]", "values": [{"measurement": "ED50", "setting": "[2]", "value": 0.37, "unit": "mg/kg"}, {"measurement": "ED50", "setting": "[1]", "value": 0.33, "unit": "mg/kg"}]}, {"smiles": "CS(=O)(=O)c1ccc(-c2[nH]c(C(F)(F)F)nc2-c2ccc(Cl)cc2)cc1", "values": [{"measurement": "inhibition in vivo at 2 mg/kg", "setting": "[1]", "value": 86, "unit": "%"}]}, {"smiles": "Cc1ccc(-c2[nH]c(C(F)(F)F)nc2-c2ccc(S(C)(=O)=O)cc2)cc1Cl", "values": [{"measurement": "inhibition in vivo at 2 mg/kg", "setting": "[1]", "value": 0, "unit": "%"}]}, {"smiles": "CS(=O)(=O)c1ccc(-c2[nH]c(C(F)(F)F)nc2-c2ccc(Cl)c(Cl)c2)cc1", "values": [{"measurement": "inhibition in vivo at 2 mg/kg", "setting": "[1]", "value": 84, "unit": "%"}]}, {"smiles": "CS(=O)(=O)c1ccc(-c2[nH]c(C(F)(F)F)nc2NS(=O)(=O)c2ccc(F)cc2)cc1", "values": [{"measurement": "inhibition in vivo at 2 mg/kg", "setting": "[1]", "value": 33, "unit": "%"}]}, {"smiles": "CS(=O)(=O)c1ccc(-c2[nH]c(C(F)(F)F)nc2-c2ccc(F)c(F)c2)cc1", "values": [{"measurement": "inhibition in vivo at 2 mg/kg", "setting": "[1]", "value": 68, "unit": "%"}]}, {"smiles": "CS(=O)(=O)c1ccc(-c2[nH]c(C(F)(F)F)nc2-c2cccc(F)c2)cc1", "values": [{"measurement": "inhibition in vivo at 2 mg/kg", "setting": "[1]", "value": 92, "unit": "%"}]}, {"smiles": "CS(=O)(=O)c1ccc(-c2[nH]c(C(F)(F)F)nc2-c2ccsc2)cc1", "values": [{"measurement": "inhibition in vivo at 2 mg/kg", "setting": "[1]", "value": 0, "unit": "%"}]}, {"smiles": "Cc1c(F)cccc1-c1[nH]c(C(F)(F)F)nc1-c1ccc(S(C)(=O)=O)cc1", "values": [{"measurement": "inhibition in vivo at 2 mg/kg", "setting": "[1]", "value": 94, "unit": "%"}]}, {"smiles": "CS(=O)(=O)c1ccc(-c2[nH]c(C(F)(F)F)nc2-c2cccc(Cl)c2)cc1", "values": [{"measurement": "inhibition in vivo at 2 mg/kg", "setting": "[1]", "value": 98, "unit": "%"}]}, {"smiles": "CS(=O)(=O)c1ccc(-c2[nH]c(C(F)(F)F)nc2-c2ccc(F)cc2)cc1", "values": [{"measurement": "inhibition in vivo at 2 mg/kg", "setting": "[1]", "value": 99, "unit": "%"}]}, {"smiles": "CS(=O)(=O)c1ccc(-c2[nH]c(C(F)(F)F)nc2-c2ccc(F)cc2F)cc1", "values": [{"measurement": "inhibition in vivo at 2 mg/kg", "setting": "[1]", "value": 100, "unit": "%"}]}, {"smiles": "CS(=O)(=O)c1ccc(-c2[nH]c(C(F)(F)F)nc2-c2cccnc2)cc1", "values": [{"measurement": "inhibition in vivo at 2 mg/kg", "setting": "[1]", "value": 29, "unit": "%"}]}, {"smiles": "Cc1cccc(-c2[nH]c(C(F)(F)F)nc2-c2ccc(S(C)(=O)=O)cc2)c1", "values": [{"measurement": "inhibition in vivo at 2 mg/kg", "setting": "[1]", "value": 29, "unit": "%"}]}, {"smiles": "CS(=O)(=O)c1ccc(-c2[nH]c(C(F)(F)F)nc2-c2ccccc2Cl)cc1", "values": [{"measurement": "inhibition in vivo at 2 mg/kg", "setting": "[1]", "value": 86, "unit": "%"}]}]}
